Data taken from patent US11331367B1, “Compounds and methods for inhibiting protozoan parasites” (University of South Florida, priority 2018, dated 2022).
Non-standard residues stand in square brackets, D forms with d. Residues, ends and D or L forms follow the SMILES beside them. *: point of attachment. NMeI = CC[C@H](C)[C@H](NC)C(=O)O; dNMeF = CN[C@H](Cc1ccccc1)C(=O)O; X1 = C(=C/c1c[nH]c2ccccc12)/N*; NMeV = CN[C@H](C(=O)O)C(C)C; NMeA = CN[C@@H](C)C(=O)O

System: Plasmodium falciparum liver-stage parasites
Test: microbe, parasite or virus in culture
Assay type: cell-based
Conditions: for inhibition of P. falciparum liver-stage development (in words): in vitro liver model, drug treatment at 10 μM
Description: Bioactivity of friomaramide was evaluated for inhibition of Plasmodium falciparum liver-stage parasites and primary human hepatocyte (PHH) toxicity using an in vitro liver model. In brief, cryopreserved PHHs were seeded at 1.8×10^4 cells per well in a 384-well microplate. Freshly isolated P. falciparum sporozoites were inoculated at 2.0×10^4 per well with subsequent drug treatment at 10 μM. Media was changed daily with fresh addition of drug for 3 days until experiment fixation on day 6.

Compound: C[C@H]1[C@@H](O)O[C@@H]2O[C@@]3(C)CC[C@H]4[C@H](C)CC[C@@H]1[C@@]24OO3 [DHA]
- inhibition of P. falciparum liver-stage development (in words): does not inhibit

Compound: CC[C@H](C)[C@@H](C(=O)N/C=C\c1c[nH]c2ccccc12)N(C)C(=O)[C@H]([C@@H](C)CC)N(C)C(=O)[C@H](C)N(C)C(=O)[C@H](C(C)C)N(C)C(=O)[C@@H](Cc1ccccc1)N(C)C(C)=O [friomaramide] (Ac-[dNMeF][NMeV][NMeA][NMeI][NMeI]-X1)
- inhibition of P. falciparum liver-stage development (in words): block sporozoite invasion and subsequent liver-stage parasite development

Compound: COc1cc(NC(C)CCCN)c2ncccc2c1 (stereo not drawn) [primaquine]
- inhibition at 10 µM (Plasmodium falciparum, Hepatocyte, read-out: inhibition of P. falciparum liver-stage growth): > 90%
